This test has as its system CEM cells HIV-1 protection, formazan growth assay. Briefly: NCI AIDS Antiviral Assay. The note with it: for IC50: measured here: growth of uninfected CEM cells. An outline of the steps: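 Human CEM cells, uninfected and HIV-1-infected, exposed to five drug concentrations; growth measured by soluble formazan assay and scored as percent protection from infection, with protecting compounds retested.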

Our source for the EC50, IC50 and outcome values is PubChem BioAssay AID179 (DTP/NCI, 2004).

Molecules are shown by their SMILES. Activity calls are given as the source filed them.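 How the source made its calls: active means compounds giving half or more protection of infected cells from virus-caused growth loss, again on retest; inactive means the rest.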 Where a SMILES comes first, the peptide text is derived from it. The star is where a group is joined. ONb = O=[N+]([O-])c1ccc(CO*)cc1; Boc = CC(C)(C)OC(=O)* A value given as a limit tells only on which side of the number the result lay.

For orientation: EC50 means the concentration that produces a half-maximal response. As a reminder, the IC50 is the concentration at which inhibition is half-maximal. A higher IC50 goes with lower potency.

Take `COc1ccc2c(c1)c1c(n2CCN2CCCCC2)-c2ccccc2CC1`: the EC50 was above 200 µM and the IC50 was 13.2 µM. In the case of `CC(C)(CN1CCCCC1)C(/C=C/c1ccc(Cl)c(Cl)c1)=N\NC(=O)N/N=C(/C=C/c1ccc(Cl)c(Cl)c1)C(C)(C)CN1CCCCC1`, the EC50 was above 200 µM and the IC50 was determined as 2.24 µM. For `NC1c2c(Cl)sc(Cl)c2C(=O)C1O` (stereo not drawn), the EC50 is above 200 µM and the IC50 was 35.5 µM. For the molecule `Cc1nc2nnc(CCCCCCCCc3nnc4nc(C)[nH]n34)n2[nH]1`, the EC50 was 135 µM and the IC50 is 174 µM.

Take `C=CC1(c2ccc(-c3ccccc3)cc2)OCCO1`: the EC50 was above 200 µM and the IC50 was determined as 81.3 µM. Consider `CCCC(O)CNCc1ccc(N(C)C)cc1` (stereo not drawn), for which the outcome was inactive. With `COc1cc(OC)cc(OCc2nc3cc(C(F)(F)F)ccc3nc2-c2ccccc2)c1`, the EC50 is above 200 µM and the IC50 is 52.5 µM.

As to `C[C@@H]1S[C@H](c2c(F)cccc2F)n2c1nc1ccccc12`, the EC50 is 29.5 µM and the IC50 came out at 43.7 µM. Take `CC(C)(C)OC(=O)NC(Cc1cc(C(C)(C)C)c(O)c(C(C)(C)C)c1)C(=O)O` (stereo not drawn): the EC50 was above 200 µM and the half-maximal inhibitory concentration (IC50) amounted to 61.7 µM.

`COc1ccc2c(c1)CC[C@@H]1[C@@H]2CC[C@]2(C)/C(=N/OCCN3CCCCC3)CC[C@@H]12`: the EC50 is above 20 µM and the 50% inhibitory concentration (IC50) is 3.16 µM. Consider `CN(/N=C/c1ccc(Cl)cc1)C1=NCCCCN1`, for which the EC50 was above 200 µM and the IC50 is 87.1 µM. `CC(=O)OC1C[C@H]2C(OC(=O)c3ccccc3)C3C4(OC(C)=O)COC4C[C@H](OC(C)=O)[C@@]3(C)C(OC(C)=O)[C@H](OC(C)=O)C(=C1C)C2(C)C` (stereo partly drawn): the EC50 is above 35.5 µM and the half-inhibitory concentration (IC50) is above 35.5 µM.

Regarding `COC(=O)C1=C(C(=O)OC)SC(=C2C(=O)c3ccccc3-c3ccccc32)S1`, the result was inactive.

With `CCOC(=O)[C@@H]1[C@@H](c2ccccc2)N(C)O[C@@]1(c1ccccc1)C(F)(F)F`, the EC50 was above 200 µM and the IC50 stood at 47.9 µM.

Consider `C=C1CCC23CC(CC[C@@H]2[C@@]12C[C@@H](c1ccoc1)OC2=O)OC3=O` (stereo partly drawn), for which the EC50 is above 79.4 µM and the IC50 is above 79.4 µM. Take `CCN(CC)C(=O)c1c(N2CCOCC2)cc(N(CC)CC)oc1=O`: the EC50 is above 708 µM and the IC50 was above 708 µM.

Take `CCC1C(=O)OCc2ccccc21` (stereo not drawn): the EC50 was above 200 µM and the IC50 is above 200 µM.

Regarding `O=C(N=Nc1cccc(Cl)c1)NNc1cccc(Cl)c1`, the EC50 was above 200 µM and the IC50 was determined as 15.5 µM. For `c1ccc2c(CC[n+]3cccc(C4OCCO4)c3)c[nH]c2c1`, the EC50 was above 661 µM and the IC50 worked out at 110 µM. Regarding `C(=C\c1c[nH]c2ccccc12)/c1ccc2ccccc2n1`, the EC50 is 0.0631 µM and the IC50 amounted to 16.6 µM. As for `N#CC(NNC(=O)c1ccccc1O)c1cccc(O)c1` (stereo not drawn), the EC50 is above 6.31 µM and the IC50 was 0.562 µM.

In the case of `c1ccc(C(c2ccccc2)[P+](c2ccccc2)(c2ccccc2)c2ccccc2)cc1`, the EC50 was above 20 µM and the IC50 was found to be 0.372 µM. In the case of `CC1(C)OCC(C2OC3OC(C)(C)OC3C2OC(=S)SSC(=S)OC2C(C3COC(C)(C)O3)OC3OC(C)(C)OC32)O1` (stereo not drawn), the EC50 was above 200 µM and the IC50 was 16.6 µM. Turning to `O=C1CNN=C(Cn2nc(-c3ccccc3)c3ccccc3c2=O)N1`, the EC50 was above 6.03 µM and the IC50 is above 6.03 µM. As to `S=C1CC(N2CCCC2)=Nc2ccccc2N1`, the EC50 was above 200 µM and the IC50 is above 200 µM. Turning to `CSC1(Cc2ccccn2)C(=O)Nc2cccc([N+](=O)[O-])c21` (stereo not drawn), the EC50 is above 200 µM and the IC50 amounted to 31.6 µM.

Consider `O=C1c2c(O)cccc2C(C(=O)CCCCCC(=O)C2c3cccc(O)c3C(=O)c3c(O)cccc32)c2cccc(O)c21`, for which the EC50 is above 6.61 µM and the half-inhibitory concentration (IC50) came to 6.17 µM. Take `CC(C)(C)C(=CS(=O)/N=C/c1ccccc1)C(C)(C)C` (stereo not drawn): the EC50 is above 24.5 µM and the 50% inhibitory concentration (IC50) is above 24.5 µM. With `CCOC(=O)C1SCCC1(C)O` (stereo not drawn), the outcome was inactive. Consider `CSc1ccc(/C=C2\CNC/C(=C\c3ccc(SC)cc3)C2=O)cc1`, for which the EC50 is above 200 µM and the IC50 came out at 58.9 µM. For the molecule `CCC(/C(=N/NC(=O)C[N+](C)(C)C)c1ccccc1)C1OC(=O)c2ccccc21` (stereo not drawn), the EC50 is above 575 µM and the IC50 was above 575 µM. Turning to `Cn1cnc2nc[nH]c2c1=N`, the EC50 is above 200 µM and the IC50 is above 200 µM.

Consider `Cn1c(COC(=O)NC2CCCCC2)c(COC(=O)NC2CCCCC2)c2ccc3cc(C=O)ccc3c21`, for which the EC50 was above 174 µM and the concentration for half-maximal inhibition (IC50) turned out to be 2.19 µM. For the molecule `CNc1nc2c(C)ccc3[nH]c(N(C)C)nc3c-2n1`, the EC50 is above 759 µM and the IC50 came to 50.1 µM. Taken in the same sequence, the figures for `CCCCSc1ccc2n(C)c(-c3ccc(/C=N\NC(=O)c4ccc(C(=O)N/N=C\c5ccc(-c6c[n+]7cc(SCCCC)ccc7n6C)cc5)cc4)cc3)c[n+]2c1` were 3.24 µM and 6.31 µM.

Take `CC12CCC(=O)N1c1ccccc1N2` (stereo not drawn): the EC50 is above 501 µM and the IC50 was above 501 µM.

On to `Cc1nn(C(=O)Cc2ccccc2)c2c1C(c1ccc([N+](=O)[O-])cc1)SC(N)=N2` (stereo not drawn), for which the EC50 is 77.6 µM and the IC50 was found to be 117 µM.

With `CC(C)(C)C(=O)OC12/C(=N/O)CCCCCC1c1ccccc12` (stereo not drawn), the EC50 was above 200 µM and the IC50 was 37.2 µM.

`c1ccc(C2COC(c3ccc4c(c3)OCO4)O2)cc1` (stereo not drawn): the EC50 was above 200 µM and the IC50 came out at 162 µM.

With `C=CCOC(=O)N(C)CC(OC(=O)C(C)(C)C)C1(c2ccc3c(c2)OCO3)C=CC(=O)C=C1` (stereo not drawn), the result was inactive. As to `CC1C2=C(CC(C)(C)CC2=O)NC2=C1C(=O)CC(C)(C)C2`, the EC50 is above 200 µM and the IC50 came out at 166 µM. Take `COc1cc(C2c3cc4c(cc3OC(NCCO)C2C)OCO4)cc(OC)c1OC` (stereo not drawn): the EC50 is above 20 µM and the half-maximal inhibitory concentration (IC50) amounted to 0.24 µM. In the case of `CCOC(=O)N1C2C=CC(C2)N1C(=O)Nc1ccc(Cl)cc1` (stereo not drawn), the EC50 was above 200 µM and the concentration for half-maximal inhibition (IC50) was 170 µM. Taken in the same sequence, the figures for `CCOC(=O)c1ccc2c(=O)n3c(C(=O)OCC)ccc3c(=O)n12` were 162 µM and above 200 µM. In the case of `O=c1[nH]ccc(CNC23CC4CC(CC(C4)C2)C3)c1O`, the EC50 was above 45.7 µM and the IC50 was above 45.7 µM. Regarding `N#CC1(C=O)c2ccccc2C=CN1C(=O)c1ccccc1` (stereo not drawn), the EC50 is above 91.2 µM and the IC50 was above 91.2 µM. Take `COc1ccc(N2C(=O)C3c4[nH]c5cc(Cl)ccc5c4C4CCC(C(C)(C)C)CC4C3C2=O)cc1` (stereo not drawn): the EC50 is above 200 µM and the half-maximal inhibitory concentration (IC50) was determined as 91.2 µM. For `O=C1c2c(O)cc(O)cc2OC(c2ccc(O)cc2O)C1O` (stereo not drawn), the EC50 was above 200 µM and the half-maximal inhibitory concentration (IC50) came to 93.3 µM. On to `O=C(/C=C/C(=O)N/N=C/c1cc(S(=O)(=O)O)c2cccnc2c1O)N/N=C/c1cc(S(=O)(=O)O)c2cccnc2c1O`, for which the EC50 is 178 µM and the half-maximal inhibitory concentration (IC50) is above 200 µM. `CC1(C)CNC(=O)C2(CCCO2)CNC(C)(C)CNC(=O)C2(CCCO2)CN1` (stereo not drawn): the EC50 was above 126 µM and the IC50 is above 126 µM. With `CN1CN(c2ccccc2)C2(CCN(CCCCCCF)CC2)C1=O`, the EC50 was above 200 µM and the IC50 came out at 107 µM. As for `O=C1CN(CCN2CCCCC2)CC(=O)N2CCCCN12`, the EC50 is above 200 µM and the IC50 was above 200 µM. With `O=C1OCCC1(Cc1ccc(Cl)cc1)Cc1ccc(Cl)cc1`, the EC50 is above 29.5 µM and the IC50 is above 29.5 µM. Consider `COc1ccc2c(c1)NC1(O)c3ccccc3C(=O)C21O` (stereo not drawn), for which the EC50 is above 331 µM and the half-maximal inhibitory concentration (IC50) is above 331 µM. As to `CC(=O)OC1CC2C(CCC3(C)C(OC(C)=O)CCC23)c2c(OS(=O)(=O)c3ccccc3)ccc(C)c21` (stereo not drawn), the EC50 was above 100 µM and the half-maximal inhibitory concentration (IC50) was above 100 µM. Consider `Nc1nnnn1CCCl`, for which the EC50 was above 200 µM and the IC50 was above 200 µM.

Consider `COc1c2c(c(OC)c3c(=O)cc(C/C(=N/NC(=O)C[n+]4ccccc4)C(=O)Nc4cc(C)ccc4C)oc13)OCO2`, for which the EC50 is above 30.9 µM and the IC50 was above 30.9 µM.

For `O=C1c2cccc3cccc(c23)C(=O)N1CCCN(CCO)CCO`, the EC50 was above 200 µM and the IC50 came to 12.3 µM.

As for `C[C@@]1(C(=O)O)CCC[C@@]2(C)C1[C@H](OC(=O)c1ccccc1)CC1CC3CC12CC[C@@]3(C)O` (stereo partly drawn), the EC50 was above 282 µM and the IC50 turned out to be 58.9 µM. Taken in the same sequence, the figures for `CCc1ccccc1NC(=O)C1=C(C)NC(C)=C(C(=O)Nc2ccccc2CC)C1c1cccc([N+](=O)[O-])c1` were above 19.1 µM and above 19.1 µM. For `CC1(S)CC2C(CC1Sc1ccccc1)C2(C)C` (stereo not drawn), the EC50 is above 25.7 µM and the 50% inhibitory concentration (IC50) is above 25.7 µM. For `CSc1nc2c(c(=O)n1C)N=C(c1ccc(Cl)cc1)CC(c1ccccc1)N2` (stereo not drawn), the EC50 was above 200 µM and the half-maximal inhibitory concentration (IC50) came out at 18.2 µM. For `COc1ccc2c(c1)C/C(=C\c1cccc3ccccc13)C2=O`, the EC50 was above 200 µM and the IC50 was found to be 51.3 µM. `O=C(O)Cc1cccc2c1OC(c1ccccc1)C(C(=O)c1ccccc1)C2=O` (stereo not drawn): the EC50 is above 200 µM and the IC50 was determined as 75.9 µM. As for `CSc1c(C#N)c(O)n(-c2ccc(C)cc2)c(=O)c1C#N`, the EC50 was above 115 µM and the IC50 came to 102 µM. `Cc1ccc(S(=O)(=O)NC(=O)NCCc2ccccc2)cc1`: the EC50 was 7.08 µM and the IC50 turned out to be 295 µM. With `CC(C)CC(NC(=O)OC(C)(C)C)C(=O)NC(CCC(=O)OCc1ccc([N+](=O)[O-])cc1)C(=O)OCc1ccc([N+](=O)[O-])cc1` (stereo not drawn) (Boc-Leu-Glu(ONb)-ONb; configuration not given here), the EC50 was above 200 µM and the IC50 was determined as 10.7 µM.

Consider `COc1ccc2c3c([nH]c2c1[N+](=O)[O-])C(C)=NCC3`, for which the outcome was inactive. For the molecule `Cc1ccc([C@H]2CC(=O)C[C@H](c3ccc(C)cc3)C23C(=O)c2ccccc2C3=O)cc1`, the EC50 was above 200 µM and the 50% inhibitory concentration (IC50) was above 200 µM.
